The results in this text go back to patent US20230340011A1 (Asteroid Therapeutics, priority 2022, published 2023).

Some results are limits rather than exact numbers.

Test [1] addresses SREBP-2 (Homo sapiens (Human), UniProt Q12772). Nature of the test: In vitro assay SREBP-2: PathHunter U2OS SREBP-2 Nuclear Translocation Cell Line, U18666A-stimulated. Type of test: cell-based. As to conditions: PathHunter U2OS SREBP-2 nuclear translocation cells, U18666A 10 μM, overnight (16 hours).
Test [2] concerns the target LXRβ (Homo sapiens (Human), UniProt P55055). Briefly: In vitro assay LXRβ: PathHunter NHR CHO cells, LXRβ / Steroid Receptor Co-activator Peptide enzyme fragment complementation. Type of test: cell-based. As to conditions: PathHunter NHR CHO cells, full-length human LXRβ and SRCP, chemiluminescent signal; read-out: LXRβ PPI. The method in brief: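 Enzyme fragment complementation read-out: CHO cells stably expressing ProLink-tagged full-length human LXRβ plus nuclear enzyme acceptor–SRCP fusion, seeded and held overnight at 37° C. Medium with charcoal-dextran filtered serum; final vehicle 1%. Chemiluminescence measured after signal generation.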

Sequence of LXRβ (P55055 whole entry, the tested form may be a part): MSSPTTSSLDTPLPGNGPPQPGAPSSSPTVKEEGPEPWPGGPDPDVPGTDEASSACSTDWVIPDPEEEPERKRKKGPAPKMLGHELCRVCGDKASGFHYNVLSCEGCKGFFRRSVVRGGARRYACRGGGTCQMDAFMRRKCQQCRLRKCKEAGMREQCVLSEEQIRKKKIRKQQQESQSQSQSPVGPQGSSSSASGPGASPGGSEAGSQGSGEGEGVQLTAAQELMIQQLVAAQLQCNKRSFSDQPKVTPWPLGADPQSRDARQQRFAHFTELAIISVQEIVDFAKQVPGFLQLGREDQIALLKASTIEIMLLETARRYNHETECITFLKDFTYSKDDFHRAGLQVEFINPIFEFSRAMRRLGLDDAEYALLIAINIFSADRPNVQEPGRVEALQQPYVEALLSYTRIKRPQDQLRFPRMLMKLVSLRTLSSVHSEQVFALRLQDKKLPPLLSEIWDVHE

As usually defined, the IC50 is the concentration that inhibits the measured activity by half. Take `COc1ncnc(N2CCN(C(=O)CC[C@@H](C)[C@H]3CC[C@H]4[C@@H]5CC=C6C[C@@H](O)CC[C@]6(C)[C@H]5CC[C@]34C)CC2)c1OC` [Example 618, (R)-1-(4-(5,6-dimethoxypyrimidin-4-yl)piperazin-1-yl)-4-((3S,8S,9S,10R,13R,14S,17R)-3-hydroxy-10,13-dimethyl-2,3,4,7,8,9,10,11,12,13,14,15,16,17-tetradecahydro-1H-cyclopenta[a]phenanthren-17-yl)pentan-1-one]: the IC50 in test [1] is under 250 nM. For the same compound, the EC50 in test [2] was over 10000 nM.
The matching figures for `C[C@H](CCC(=O)N1CCN(c2ncncc2C(F)(F)F)CC1)[C@H]1CC[C@H]2[C@@H]3CC=C4C[C@@H](O)CC[C@]4(C)[C@H]3CC[C@]12C` [Example 619, (R)-4-((3S,8S,9S,10R,13R,14S,17R)-3-hydroxy-10,13-dimethyl-2,3,4,7,8,9,10,11,12,13,14,15,16,17-tetradecahydro-1H-cyclopenta[a]phenanthren-17-yl)-1-(4-(5-(trifluoromethyl)pyrimidin-4-yl)piperazin-1-yl)pentan-1-one]: under 250 nM and over 10000 nM.
The like results for `C[C@H](CCC(=O)N1CCN(c2ncccc2OC2CC2)CC1)[C@H]1CC[C@H]2[C@@H]3CC=C4C[C@@H](O)CC[C@]4(C)[C@H]3CC[C@]12C` [Example 621, (R)-1-(4-(3-cyclopropoxypyridin-2-yl)piperazin-1-yl)-4-((3S,8S,9S,10R,13R,14S,17R)-3-hydroxy-10,13-dimethyl-2,3,4,7,8,9,10,11,12,13,14,15,16,17-tetradecahydro-1H-cyclopenta[a]phenanthren-17-yl)pentan-1-one] were, in that order, under 250 nM and over 10000 nM.
The like results for `COc1cccnc1C1CCN(C(=O)CC[C@@H](C)[C@H]2CC[C@H]3[C@@H]4CC=C5C[C@@H](O)CC[C@]5(C)[C@H]4CC[C@]23C)CC1` [Example 622, (R)-4-((3S,8S,9S,10R,13R,14S,17R)-3-hydroxy-10,13-dimethyl-2,3,4,7,8,9,10,11,12,13,14,15,16,17-tetradecahydro-1H-cyclopenta[a]phenanthren-17-yl)-1-(4-(3-methoxypyridin-2-yl)piperidin-1-yl)pentan-1-one] were, in that order, under 250 nM and over 10000 nM.
On to `COc1ccccc1C1CCN(C(=O)CC[C@@H](C)[C@H]2CC[C@H]3[C@@H]4CC=C5C[C@@H](O)CC[C@]5(C)[C@H]4CC[C@]23C)CC1` [Example 623, (R)-4-((3S,8S,9S,10R,13R,14S,17R)-3-hydroxy-10,13-dimethyl-2,3,4,7,8,9,10,11,12,13,14,15,16,17-tetradecahydro-1H-cyclopenta[a]phenanthren-17-yl)-1-(4-(2-methoxyphenyl)piperidin-1-yl)pentan-1-one], for which the concentration for half-maximal inhibition (IC50) in test [1] was under 250 nM. In addition, the EC50 in test [2] lay in the range of 1000 to 10000 nM.
Compound `COc1ccccc1N1CCN(C(=O)CC[C@@H](C)[C@H]2CC[C@H]3[C@@H]4CC=C5C[C@@H](O)CC[C@]5(C)[C@H]4CC[C@]23C)CC1` [Example 624, (R)-4-((3S,8S,9S,10R,13R,14S,17R)-3-hydroxy-10,13-dimethyl-2,3,4,7,8,9,10,11,12,13,14,15,16,17-tetradecahydro-1H-cyclopenta[a]phenanthren-17-yl)-1-(4-(2-methoxyphenyl)piperazin-1-yl)pentan-1-one] came in with an IC50 in test [1] of under 250 nM. In addition, in test [2], the EC50 is over 10000 nM.
In turn, `COc1cccnc1NC(=O)CC[C@@H](C)[C@H]1CC[C@H]2[C@@H]3CC=C4C[C@@H](O)CC[C@]4(C)[C@H]3CC[C@]12C` [Example 625, (R)-4-((3S,8S,9S,10R,13R,14S,17R)-3-hydroxy-10,13-dimethyl-2,3,4,7,8,9,10,11,12,13,14,15,16,17-tetradecahydro-1H-cyclopenta[a]phenanthren-17-yl)-N-(3-methoxypyridin-2-yl)pentanamide] came in with an IC50 in test [1] of under 250 nM. Besides, the EC50 in test [2] is over 10000 nM.
The matching figures for `C[C@H](CCC(=O)N1CCOc2cccnc21)[C@H]1CC[C@H]2[C@@H]3CC=C4C[C@@H](O)CC[C@]4(C)[C@H]3CC[C@]12C` [Example 626, (4R)-4-[(1R,3aS,3bS,7S,9aR,9bS,11aR)-7-hydroxy-9a,11a-dimethyl-1H,2H,3H,3aH,3bH,4H,6H,7H,8H,9H,9aH,9bH,10H,11H,11aH-cyclopenta[a]phenanthren-1-yl]-1-{2H,3H,4H-pyrido[3,2-b][1,4]oxazin-4-yl}pentan-1-one]: under 250 nM and 1000 to 10000 nM.
The matching figures for `COc1ccc2ccnc(N3CCN(C(=O)CC[C@@H](C)[C@H]4CC[C@H]5[C@@H]6CC=C7C[C@@H](O)CC[C@]7(C)[C@H]6CC[C@]45C)CC3)c2c1` [Example 627, (R)-4-((3S,8S,9S,10R,13R,14S,17R)-3-hydroxy-10,13-dimethyl-2,3,4,7,8,9,10,11,12,13,14,15,16,17-tetradecahydro-1H-cyclopenta[a]phenanthren-17-yl)-1-(4-(7-methoxyisoquinolin-1-yl)piperazin-1-yl)pentan-1-one]: under 250 nM and over 10000 nM.
The matching figures for `C[C@H](CCC(=O)N1CCN(c2nccc3ccncc23)CC1)[C@H]1CC[C@H]2[C@@H]3CC=C4C[C@@H](O)CC[C@]4(C)[C@H]3CC[C@]12C` [Example 628, (R)-1-(4-(2,7-naphthyridin-1-yl)piperazin-1-yl)-4-((3S,8S,9S,10R,13R,14S,17R)-3-hydroxy-10,13-dimethyl-2,3,4,7,8,9,10,11,12,13,14,15,16,17-tetradecahydro-1H-cyclopenta[a]phenanthren-17-yl)pentan-1-one]: under 250 nM and over 10000 nM.
Turning to `COc1nnccc1N1CCN(C(=O)CC[C@@H](C)[C@H]2CC[C@H]3[C@@H]4CC=C5C[C@@H](O)CC[C@]5(C)[C@H]4CC[C@]23C)CC1` [Example 629, (R)-4-((3S,8S,9S,10R,13R,14S,17R)-3-hydroxy-10,13-dimethyl-2,3,4,7,8,9,10,11,12,13,14,15,16,17-tetradecahydro-1H-cyclopenta[a]phenanthren-17-yl)-1-(4-(3-methoxypyridazin-4-yl)piperazin-1-yl)pentan-1-one], in test [1], the IC50 was under 250 nM. The EC50 in test [2] was over 10000 nM.
The like results for `C[C@H](CCC(=O)N1CCN(c2ncncc2O)CC1)[C@H]1CC[C@H]2[C@@H]3CC=C4C[C@@H](O)CC[C@]4(C)[C@H]3CC[C@]12C` [Example 630, (R)-4-((3S,8S,9S,10R,13R,14S,17R)-3-hydroxy-10,13-dimethyl-2,3,4,7,8,9,10,11,12,13,14,15,16,17-tetradecahydro-1H-cyclopenta[a]phenanthren-17-yl)-1-(4-(5-hydroxypyrimidin-4-yl)piperazin-1-yl)pentan-1-one] were, in that order, under 250 nM and over 10000 nM.
In test [1], `C[C@H](CCC(=O)N1CCN(c2cc(O)ncn2)CC1)[C@H]1CC[C@H]2[C@@H]3CC=C4C[C@@H](O)CC[C@]4(C)[C@H]3CC[C@]12C` [Example 631, (4R)-4-[(1R,3aS,3bS,7S,9aR,9bS,11aR)-7-hydroxy-9a,11a-dimethyl-1H,2H,3H,3aH,3bH,4H,6H,7H,8H,9H,9aH,9bH,10H,11H,11aH-cyclopenta[a]phenanthren-1-yl]-1-[4-(6-hydroxypyrimidin-4-yl)piperazin-1-yl]pentan-1-one] had an IC50 of under 250 nM. For the same compound, in test [2], the EC50 was over 10000 nM.
